Assay results from ChEMBL document CHEMBL5518215, “Unlocking Antibacterial Potential: Key-Site-Based Regulation of Antibacterial Spectrum of Peptides” (J Med Chem, 2024).

Key:
Escherichia coli [1] = test: Antimicrobial activity against Escherichia coli 25922 assessed as absence bacterial growth measured after 18 to 24 hrs incubation in presence of MgCl2 by NCCLS method; assay type: functional; settings: time 18-24 hrs
Salmonella typhimurium [2] = test: Antimicrobial activity against Salmonella typhimurium C7731 assessed as bacterial killing measured after 16 hrs incubation; assay type: functional, Salmonella enterica subsp. enterica serovar Typhimurium; settings: Salmonella enterica
Escherichia coli [3] = test: Antimicrobial activity against Escherichia coli K88 assessed as absence bacterial growth measured after 18 to 24 hrs incubation by NCCLS method; assay type: functional; settings: time 18-24 hrs
Bacillus cereus [4] = test: Antimicrobial activity against Bacillus cereus 1.932 assessed as absence bacterial growth measured after 18 to 24 hrs incubation by NCCLS method; assay type: functional; settings: time 18-24 hrs
Escherichia coli [5] = test: Antimicrobial activity against Escherichia coli 25922 assessed as absence bacterial growth measured after 18 to 24 hrs incubation in presence of FeCl3 by NCCLS method; assay type: functional; settings: time 18-24 hrs
[6] = system: Staphylococcus epidermidis; test: Antimicrobial activity against Staphylococcus epidermidis 12228 assessed as absence bacterial growth measured after 18 to 24 hrs incubation by NCCLS method; assay type: functional; settings: time 18-24 hrs
Listeria monocytogenes [7] = test: Antimicrobial activity against Listeria monocytogenes 1.10753 assessed as absence bacterial growth measured after 18 to 24 hrs incubation by NCCLS method; assay type: functional; settings: time 18-24 hrs
Escherichia coli [8] = test: Antimicrobial activity against Escherichia coli 25922 assessed as absence bacterial growth measured after 18 to 24 hrs incubation in presence of NH4Cl by NCCLS method; assay type: functional; settings: time 18-24 hrs
Acinetobacter baumannii [9] = test: Antimicrobial activity against Acinetobacter baumannii 1.6769 assessed as bacterial killing measured after 16 hrs incubation; assay type: functional
Staphylococcus aureus [10] = test: Antimicrobial activity against Staphylococcus aureus 29213 assessed as absence bacterial growth measured after 18 to 24 hrs incubation by NCCLS method; assay type: functional; settings: time 18-24 hrs
Salmonella typhimurium [11] = test: Antimicrobial activity against Salmonella typhimurium 14028 assessed as absence bacterial growth measured after 18 to 24 hrs incubation by NCCLS method; assay type: functional, Salmonella enterica subsp. enterica serovar Typhimurium; settings: Salmonella enterica, time 18-24 hrs
Staphylococcus aureus [12] = test: Antimicrobial activity against Staphylococcus aureus 29213 assessed as absence bacterial growth measured after 18 to 24 hrs incubation by NCCLS m; assay type: functional; settings: time 18-24 hrs
Pseudomonas aeruginosa [13] = test: Antimicrobial activity against Pseudomonas aeruginosa 27853 assessed as bacterial killing measured after 16 hrs incubation; assay type: functional
Escherichia coli [14] = test: Antimicrobial activity against Escherichia coli 25922 assessed as absence bacterial growth measured after 18 to 24 hrs incubation by NCCLS method; assay type: functional; settings: time 18-24 hrs
Pseudomonas aeruginosa [15] = test: Antimicrobial activity against Pseudomonas aeruginosa 27853 assessed as absence bacterial growth measured after 18 to 24 hrs incubation by NCCLS method; assay type: functional; settings: time 18-24 hrs
[16] = Antimicrobial activity against Salmonella pullorum C7913 assessed as bacterial killing measured after 16 hrs incubation; assay type: functional, Salmonella enterica subsp. enterica serovar Pullorum; settings: Salmonella enterica
Escherichia coli [17] = test: Antimicrobial activity against Escherichia coli 25922 assessed as absence bacterial growth measured after 18 to 24 hrs incubation in presence of 50% serum by NCCLS method; assay type: functional; settings: time 18-24 hrs
Staphylococcus aureus [18] = test: Antimicrobial activity against Staphylococcus aureus 25923 assessed as bacterial killing measured after 16 hrs incubation; assay type: functional
Acinetobacter baumannii [19] = test: Antimicrobial activity against Acinetobacter baumannii 1.6769 assessed as absence bacterial growth measured after 18 to 24 hrs incubation by NCCLS method; assay type: functional; settings: time 18-24 hrs
Escherichia coli [20] = test: Antimicrobial activity against Escherichia coli 25922 assessed as absence bacterial growth measured after 18 to 24 hrs incubation in presence of 25% serum by NCCLS method; assay type: functional; settings: time 18-24 hrs
[21] = system: Staphylococcus epidermidis; test: Antimicrobial activity against Staphylococcus epidermidis 12228 assessed as bacterial killing measured after 16 hrs incubation; assay type: functional
Escherichia coli [22] = test: Antimicrobial activity against Escherichia coli K88 assessed as bacterial killing measured after 16 hrs incubation; assay type: functional
Escherichia coli [23] = test: Antimicrobial activity against Escherichia coli 25922 assessed as absence bacterial growth measured after 18 to 24 hrs incubation in presence of NaCl by NCCLS method; assay type: functional; settings: time 18-24 hrs
Erythrocyte = test: Hemolytic activity in human RBC at effective concentration measured after 1 hr by microplate reader analysis; assay type: toxicity, cell-based
[24] = Cytotoxicity against porcine IPEC-J2 cells assessed as cell survival rate measured after 8 hrs by MTT assay; assay type: toxicity, cell-based, Sus scrofa; settings: pig
Listeria monocytogenes [25] = test: Antimicrobial activity against Listeria monocytogenes 1.10753 assessed as bacterial killing measured after 16 hrs incubation; assay type: functional
[26] = Antimicrobial activity against Salmonella pullorum C7913 assessed as absence bacterial growth measured after 18 to 24 hrs incubation by NCCLS method; assay type: functional, Salmonella enterica subsp. enterica serovar Pullorum; settings: Salmonella enterica, time 18-24 hrs
Salmonella typhimurium [27] = test: Antimicrobial activity against Salmonella typhimurium 14028 assessed as bacterial killing measured after 16 hrs incubation; assay type: functional, Salmonella enterica subsp. enterica serovar Typhimurium; settings: Salmonella enterica
Staphylococcus aureus [28] = test: Antimicrobial activity against Staphylococcus aureus 29213 assessed as bacterial killing measured after 16 hrs incubation; assay type: functional
[29] = Cytotoxicity against mouse RAW264.7 cells assessed as cell survival rate measured after 8 hrs by MTT assay; assay type: toxicity, cell-based
Staphylococcus aureus [30] = test: Antimicrobial activity against Methicillin-resistant Staphylococcus aureus 43300 assessed as bacterial killing measured after 16 hrs incubation; assay type: functional
[31] = Hemolytic activity in human RBC at effective concentration at 128 uM measured after 1 hr by microplate reader relative to control; assay type: toxicity, cell-based, Erythrocyte; settings: human red blood cells (erythrocytes), read-out: Activity
Enterococcus faecalis [32] = test: Antimicrobial activity against Enterococcus faecalis 29212 assessed as bacterial killing measured after 16 hrs incubation; assay type: functional
Enterococcus faecalis [33] = test: Antimicrobial activity against Enterococcus faecalis 29212 assessed as absence bacterial growth measured after 18 to 24 hrs incubation by NCCLS method; assay type: functional; settings: time 18-24 hrs
Salmonella typhimurium [34] = test: Antimicrobial activity against Salmonella typhimurium C7731 assessed as absence bacterial growth measured after 18 to 24 hrs incubation by NCCLS method; assay type: functional, Salmonella enterica subsp. enterica serovar Typhimurium; settings: Salmonella enterica, time 18-24 hrs
Bacillus cereus [35] = test: Antimicrobial activity against Bacillus cereus 1.932 assessed as bacterial killing measured after 16 hrs incubation; assay type: functional
Escherichia coli [36] = test: Antimicrobial activity against Escherichia coli 25922 assessed as absence bacterial growth measured after 18 to 24 hrs incubation in presence of KCl by NCCLS method; assay type: functional; settings: time 18-24 hrs
Escherichia coli [37] = test: Antimicrobial activity against Escherichia coli 25922 assessed as absence bacterial growth measured after 18 to 24 hrs incubation in presence of ZnCl2 by NCCLS method; assay type: functional; settings: time 18-24 hrs
[38] = Cytotoxicity against human HEK-293T cells assessed as cell survival rate measured after 8 hrs by MTT assay; assay type: toxicity, cell-based
Escherichia coli [39] = test: Antimicrobial activity against Escherichia coli 25922 assessed as absence bacterial growth measured after 18 to 24 hrs incubation in presence of 12.5% serum by NCCLS method; assay type: functional; settings: time 18-24 hrs
Escherichia coli [40] = test: Antimicrobial activity against Escherichia coli 25922 assessed as bacterial killing measured after 16 hrs incubation; assay type: functional
Staphylococcus aureus [41] = test: Antimicrobial activity against Methicillin-resistant Staphylococcus aureus 43300 assessed as absence bacterial growth measured after 18 to 24 hrs incubation by NCCLS method; assay type: functional; settings: time 18-24 hrs

H-FKLWLKGGKLWLKGGKLWLKG-NH2
1 µM: MIC (Escherichia coli [3]) | MBC (Escherichia coli [22])
128 µM: HC10 (Erythrocyte)
> 32 µM: MIC (Escherichia coli [1]) | MBC (Salmonella typhimurium [2]) | MIC (Bacillus cereus [4]) | MIC [6] | MIC (Listeria monocytogenes [7]) | MIC (Staphylococcus aureus [10]) | MIC (Staphylococcus aureus [12]) | MIC (Escherichia coli [17]) | MBC (Staphylococcus aureus [18]) | MIC (Escherichia coli [20]) | MBC [21] | MIC (Escherichia coli [23]) | MBC (Listeria monocytogenes [25]) | MBC (Staphylococcus aureus [30]) | MBC (Enterococcus faecalis [32]) | MIC (Enterococcus faecalis [33]) | MIC (Salmonella typhimurium [34]) | MBC (Bacillus cereus [35])
4 µM: MIC (Salmonella typhimurium [11]) | MIC (Escherichia coli [14])
16 µM: MBC (Salmonella typhimurium [27]) | MIC (Escherichia coli [39]) | MIC (Staphylococcus aureus [41])
> 64 µM: IC50 at 8 h [29] | IC50 at 8 h [38]
2 µM: MIC (Escherichia coli [5]) | MBC [16] | MIC [26]
8 µM: MIC (Escherichia coli [8]) | MBC (Acinetobacter baumannii [9]) | MIC (Acinetobacter baumannii [19]) | MIC (Escherichia coli [36]) | MIC (Escherichia coli [37]) | MBC (Escherichia coli [40])
20 µM: IC50 at 8 h [24]
32 µM: MBC (Pseudomonas aeruginosa [13]) | MIC (Pseudomonas aeruginosa [15]) | MBC (Staphylococcus aureus [28])
< 10%: hemolysis at 1 h, 128 µM [31]

H-WKLWLKGGKLWLKGGKLWLKG-NH2
128 µM: HC10 (Erythrocyte)
12.9 µM: IC50 at 8 h [24]
1 µM: MIC (Escherichia coli [3]) | MBC (Escherichia coli [22]) | MIC [26]
4 µM: MIC (Escherichia coli [5]) | MBC (Acinetobacter baumannii [9]) | MIC (Salmonella typhimurium [11]) | MIC (Escherichia coli [14]) | MIC (Acinetobacter baumannii [19]) | MIC (Salmonella typhimurium [34]) | MIC (Escherichia coli [37]) | MBC (Escherichia coli [40])
8 µM: MIC (Escherichia coli [8]) | MIC (Pseudomonas aeruginosa [15]) | MBC (Salmonella typhimurium [27]) | MBC (Staphylococcus aureus [28]) | MIC (Escherichia coli [36]) | MIC (Staphylococcus aureus [41])
> 32 µM: MIC (Escherichia coli [1]) | MIC (Bacillus cereus [4]) | MIC (Listeria monocytogenes [7]) | MIC (Staphylococcus aureus [10]) | MIC (Staphylococcus aureus [12]) | MIC (Escherichia coli [17]) | MBC (Staphylococcus aureus [18]) | MIC (Escherichia coli [20]) | MBC [21] | MBC (Listeria monocytogenes [25]) | MBC (Staphylococcus aureus [30]) | MBC (Enterococcus faecalis [32]) | MIC (Enterococcus faecalis [33]) | MBC (Bacillus cereus [35]) | MIC (Escherichia coli [39])
> 64 µM: IC50 at 8 h [29] | IC50 at 8 h [38]
2 µM: MBC [16]
< 10%: hemolysis at 1 h, 128 µM [31]
32 µM: MBC (Salmonella typhimurium [2])
16 µM: MIC [6] | MBC (Pseudomonas aeruginosa [13]) | MIC (Escherichia coli [23])
